Converted amounts (≈) assume the structure as drawn.
How the values were obtained:
Assay type in all cases: functional
Tetranychus evansi [1] = experiment: Insecticidal activity against Tetranychus evansi TOR in clean French bean leaf assessed as mortality at 26 degC and 16 hr day length measured after 48 hr by microimmersion protocol
Tetranychus evansi [2] = experiment: Insecticidal activity against Tetranychus evansi ST JEA in clean French bean leaf assessed as mortality at 26 degC and 16 hr day length measured after 48 hr by microimmersion protocol
Tetranychus evansi [3] = experiment: Insecticidal activity against Tetranychus evansi R1 in clean French bean leaf assessed as mortality at 26 degC and 16 hr day length measured after 48 hr by microimmersion protocol
Tetranychus evansi [4] = experiment: Insecticidal activity against Tetranychus evansi R2 in clean French bean leaf assessed as mortality at 26 degC and 16 hr day length measured after 48 hr by microimmersion protocol
Tetranychus urticae [5] = experiment: Insecticidal activity against Tetranychus urticae LS-VL (two-spotted spider mite)
Tetranychus urticae [6] = experiment: Insecticidal activity against Tetranychus urticae (two-spotted spider mite)

SMILES: CC[C@H](C)[C@H]1O[C@]2(C=C[C@@H]1C)C[C@@H]1C[C@@H](C/C=C(\C)[C@@H](O[C@H]3C[C@H](OC)[C@@H](O[C@H]4C[C@H](OC)[C@@H](O)[C@H](C)O4)[C@H](C)O3)[C@@H](C)/C=C/C=C3\CO[C@@H]4[C@H](O)C(C)=C[C@@H](C(=O)O1)[C@]34O)O2.CO[C@H]1C[C@H](O[C@H]2[C@H](C)O[C@@H](O[C@@H]3/C(C)=C/C[C@@H]4C[C@@H](C[C@]5(C=C[C@H](C)[C@@H](C(C)C)O5)O4)OC(=O)[C@@H]4C=C(C)[C@@H](O)[C@H]5OC/C(=C\C=C\[C@@H]3C)[C@]54O)C[C@@H]2OC)O[C@@H](C)[C@@H]1O [ABAMECTIN]
- LC50 (Tetranychus evansi [1]): 0.24 µg/mL
- LC50 (Tetranychus evansi [2]): 0.23 µg/mL
- LC50 (Tetranychus evansi [3]): 0.18 µg/mL
- LC50 (Tetranychus evansi [4]): 0.19 µg/mL

SMILES: Cc1c(COC(=O)[C@@H]2[C@H](/C=C(\Cl)C(F)(F)F)C2(C)C)cccc1-c1ccccc1 (relative stereo) [BIFENTHRIN]
- LC50 (Tetranychus evansi [1]): 92 µg/mL (≈ 0.218 mM)
- LC50 (Tetranychus urticae [5]): 5.5 µg/mL (≈ 0.013 mM)
- LC50 (Tetranychus evansi [2]): 135 µg/mL (≈ 0.318 mM)
- LC50 (Tetranychus evansi [3]): 1860 µg/mL (≈ 4.39 mM)
- LC50 (Tetranychus evansi [4]): 3560 µg/mL (≈ 8.42 mM)

SMILES: CCOP(=S)(OCC)Oc1nc(Cl)c(Cl)cc1Cl [CHLORPYRIFOS]
- LC50 (Tetranychus evansi [1]): 4530 µg/mL (≈ 12.9 mM)
- LC50 (Tetranychus urticae [6]): 4 µg/mL (≈ 0.0114 mM)
- LC50 (Tetranychus evansi [2]): 3760 µg/mL (≈ 10.7 mM)
- LC50 (Tetranychus evansi [3]): 3780 µg/mL (≈ 10.8 mM)
- LC50 (Tetranychus evansi [4]): 4380 µg/mL (≈ 12.5 mM)
